Consider 24 compounds from patent US8232278B2 (Gilead Sciences, Inc., priority 2005, dated 2012).

Read-outs that look alike come from different tables or passages of the source.

The subject of data set [1] is wild-type HIV-1 strain IIIB. Kind of data set: HIV-1 assay (XTT, HIV-induced cytopathic effect in MT-2 cells). Type of data set: cell-based. The settings on record: 5 μM, MT-2 cells infected with HIV-1 IIIB, 5 days, XTT; for inhibition at 5 µM: Human immunodeficiency virus 1, MT2, 120 h, read-out: MT2 HIV % inhib. @ 5 μM. The protocol:
This assay is based on the quantification of the HIV-induced cytopathic effect by a calorimetric detection of the viability of virus-infected cells in the presence or absence of tested inhibitors. The HIV-induced cell death was determined by using as a metabolic substrate 2,3-bis(2-methoxy-4-nitro-5-sulfophenyl)-2H-tetrazolium-5-carboxanilide (hereinafter referred as XTT) which was converted only by live cells into a product with specific absorption characteristics, as described by Weislow et al., J. Natl. Cancer Inst. (1989) 81:577.
The assay protocol for the determination of EC50 includes the following steps: • 1. MT-2 cells were maintained in RPMI-1640 medium supplemented with 10% fetal bovine serum, glutamine and antibiotics. • 2. Cells were infected by the wild-type HIV-1 strain IIIB (ABI, Columbia, Md.) for 3 hours at 37° C. using a multiplicity of infection (MOI) of 0.01. • 3. Prepare a set of solutions containing various concentrations of the tested inhibitor by making 5-fold serial dilutions in 96-well plate (100 μl/well). Alternatively, test single drug concentration (100 μl/well). Distribute the infected cells into the 96-well plate containing the inhibitors (20,000 cells in 100 μl/well). Include the following control samples, untreated infected cells (100% cell death) and control drug-treated infected cells (full protection). • 4. Incubate the cells for 5 days at 37° C. • 5. Prepare XTT solution (6 mL per assay plate) at a concentration of 2 mg/mL in a phosphate-buffered saline at pH 7.4. Heat the solution in water-bath for 10 minutes at 56° C. Add 50 μl of N-methylphenazonium methasulfate (5 μg/mL) per 6 mL of XTT solution. • 6. Remove 100 μl media from each well on the assay plate. • 7. Add 100 μl of the XTT substrate solution per well and incubate at 37° C. for 45 to 60 minutes in a CO2 incubator. • 8. Add 20 μl of 2% Triton X-100 per well to inactivate the virus. • 9. Read the absorbance at 450 nm with subtracting off the background absorbance at 650 nm. • 10. Plot the percentage absorbance relative to untreated control and estimate the EC50 value as drug concentration resulting in a 50% protection of the infected cells. Alternatively, calculate the percentage of inhibition for a fixed concentration, relative to the full protection with the control drug.
This assay has been performed on a set of compounds of the invention, and results are reported in table 8 below, also indicating the nature of substituents being present in positions 4 and 6 of the pyrido[3,2-d]pyrimidine derivatives of the invention (all being amino-substituted in position 2).
For orientation: Tetrazolium dyes change colour on reduction, which living cells bring about.

For a further data set, the system named is HCV replicon. Kind of data set: Anti-HCV assay / replicon assay (EC50, luciferase read-out). The data set is classed as cell-based, hepatitis C virus (HCV). The conditions noted are these: for CC50/EC50: CC50/EC50 ratio (selectivity index). In a few lines: (§1)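 Huh-7 cells carrying an HCV replicon, 6000 per well, were exposed to 3-fold serial compound dilutions (0.5% DMSO final where DMSO was used) for 3 days at 37 °C. EC50 was read by luciferase after cell lysis; CC50 was taken as 50% inhibition of cell growth.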
A general note: Replicon systems follow genome replication, usually without infectious particles.

A further data set has as its system Huh-7 HCV replicon cells. Kind of data set: CC50 assay in Huh-7 HCV replicon cells (CellTiter-Glo). The data set is classed as cell-based, human. The conditions noted are these: 3 days, 50% cytostatic concentration. The procedure, abridged:
as §1

Experiment in data set [2]: as above
The data set is classed as cell-based, human. The conditions noted are these: human, 50% cytostatic concentration. The procedure, abridged: as §1

The mark [3] stands for this setting: Hepatitis C virus, 72 h, human hepatoma Huh-7 cell line harbouring a HCV replicon, 3 days, luciferase luminescence, read-out: EC50.

Regarding `CC(=O)Nc1ccc(-c2ccc3nc(N)nc(N4CCN(C(C)=O)CC4)c3n2)cc1` [Example 340, 2-amino-4-(N-acetylpiperazino)-6-(p-acetamidophenyl)-pyrido(3,2-d)pyrimidine], the inhibition at 5 µM in data set [1] turned out to be 4%.

For orientation: EC50 means the midpoint of the concentration-response curve. As usually defined, the CC50 is the concentration that lowers cell viability or growth by half. Low readings indicate greater toxicity to the cells, high ones lower toxicity to the cells. With `CC(C)Oc1nc(N)nc2ccc(-c3ccc(F)cc3)nc12` [Example 286, 2-amino-4-isopropoxy-6-(p-fluorophenyl)-pyrido[3,2-d]pyrimidine], the CC50/EC50 with HCV replicon turned out to be 1113. For the same compound, in the data set on HCV replicon (setting [3]), the EC50 was found to be 45 nM. It took 50100 nM to reach half-maximal cytotoxicity with Huh-7 HCV replicon cells (CC50). Also, the inhibition at 5 µM in data set [1] came to 11%.

`Nc1nc(N2CCOCC2)c2nc(-c3ccncc3)ccc2n1` [Example 226, 2-amino-4-morpholino-6-(4-pyridinyl)-pyrido[3,2-d]pyrimidine]: in data set [1], the inhibition at 5 µM was 9%.

As to `CC(C)C(=O)Nc1ccc(-c2ccc3nc(N)nc(N4CCOCC4)c3n2)cc1` [Example 501, N-[4-(2-amino-4-morpholin-4-yl-pyrido[3,2-d]pyrimidin-6-yl)-phenyl]-isobutyramide], the CC50/EC50 in the data set on HCV replicon amounted to 149. For the same compound, the EC50 in the data set on HCV replicon (setting [3]) was 49 nM. For the same compound, the CC50 at 3 days in data set [2] worked out at 7300 nM.

With `Cc1cccc(OCC(=O)N2CCN(c3nc(N)nc4ccc(-c5ccc(F)cc5)nc34)CC2)c1` [Example 370, 2-amino-4-[4-(3-methylphenoxy-acetyl)piperazin-1-yl]-6-(4-fluorophenyl)-pyrido[3,2-d]pyrimidine], the CC50/EC50 with HCV replicon was 65. The EC50 with HCV replicon (setting [3]) was 52 nM. Also, in data set [2], half-maximal cytotoxicity (CC50 at 3 days) was put at 3400 nM.

Turning to “6-(3,4-difluoro-phenyl)-4-ethoxy-pyrido[3,2-d]pyrimidin-2-ylamine [Example 460]”, the CC50/EC50 in the data set on HCV replicon came out at 145. In addition, the EC50 at HCV replicon (human hepatoma Huh-7 cell line harbouring a HCV replicon, 3 days, luciferase luminescence, read-out: EC50) amounted to 113 nM. This compound also showed a CC50 in the data set with Huh-7 HCV replicon cells of 16300 nM. Besides, the “MT2 HIV % inhib. @ 5 μM” value in data set [1] was 11%.

With `COc1ccc(-c2ccc3nc(N)nc(N4CCN(C)CC4)c3n2)cc1OC` [Example 36, 2-amino-4-(N-methyl-piperazino)-6-(3,4-dimethoxyphenyl)-pyrido[3,2-d]pyrimidine], the inhibition at 5 µM in data set [1] was determined as 3%.

Turning to `COc1ccc(-c2ccc3nc(N)nc(N4CCN(CC(=O)NCCc5ccccc5)CC4)c3n2)cc1OC` [Example 260, 2-amino-4-[4-(N-2-phenylethylacetamid-2-yl)piperazin-1-yl]-6-(3,4-dimethoxyphenyl)-pyrido[3,2-d]pyrimidine], in the data set on HCV replicon, the CC50/EC50 was determined as 73. Besides, in the data set with HCV replicon (setting [3]), the EC50 was determined as 36 nM. In data set [2], this compound showed a CC50 at 3 days of 2600 nM.

On to `CC(C)COc1nc(N)nc2ccc(-c3ccc(F)cc3)nc12` [Example 293, 2-amino-4-isobutoxy-6-(p-fluorophenyl)-pyrido[3,2-d]pyrimidine], for which the CC50/EC50 in the data set on HCV replicon is recorded as 68. The EC50 with HCV replicon (setting [3]) was 370 nM. This compound also showed a CC50 at 3 days in data set [2] of 25100 nM.

Turning to `CCCCCOc1nc(N)nc2ccc(-c3cccc(F)c3)nc12` [Example 298, 2-amino-4-n-pentyloxy-6-(m-fluorophenyl)-pyrido[3,2-d]pyrimidine], in the data set on HCV replicon, the CC50/EC50 is given as 77. Further, the EC50 in the data set with HCV replicon (setting [3]) came to 365 nM. Further, in data set [2], the CC50 at 3 days was 28000 nM.

For `CCNc1nc(N)nc2ccc(-c3ccc(F)cc3)nc12` [Example 402, 2-amino-4-ethylamino-6-(4-fluorophenyl)pyrido[3,2-d]pyrimidine], the CC50/EC50 in the data set on HCV replicon is recorded as 80. Moreover, in the data set on HCV replicon (setting [3]), the EC50 was 376 nM. In data set [2], the CC50 at 3 days was 30000 nM.

Regarding `Nc1nc(N2CCN(C(=O)COc3cccc(Cl)c3)CC2)c2nc(-c3ccc(F)cc3)ccc2n1` [Example 371, 2-amino-4-[4-(3-chlorophenoxy-acetyl)piperazin-1-yl]-6-(4-fluorophenyl)-pyrido[3,2-d]pyrimidine], the CC50/EC50 in the data set on HCV replicon is on record as 837. Also, in the data set with HCV replicon (setting [3]), the EC50 stood at 30 nM. In data set [2], the CC50 at 3 days is 25100 nM.

As for `CCOc1cccc(-c2ccc3nc(N)nc(OCC)c3n2)c1` [Example 549], the CC50/EC50 with HCV replicon worked out at 53. Also, the EC50 in the data set on HCV replicon (setting [3]) was determined as 470 nM. The same compound registered a CC50 at 3 days in data set [2] of 25100 nM.

Take `Nc1nc(OCCF)c2nc(-c3ccc(F)cc3)ccc2n1` [Example 417, 2-amino-4-(2-fluoro-ethoxy)-6-(4-fluorophenyl)pyrido[3,2-d]pyrimidine]: the CC50/EC50 in the data set on HCV replicon was 2282. Besides, the EC50 in the data set with HCV replicon (setting [3]) stood at 11 nM. For the same compound, the CC50 at 3 days in data set [2] came out at 25100 nM.

For the compound `COc1ccc(-c2ccc3nc(N)nc(NC4CCCN(C(=O)Nc5cccc(C)c5)C4)c3n2)cc1OC` (stereo not drawn) [Example 254, 2-amino-4-[(3-methylphenylcarbamoylpiperidin-3-yl)amino)-6-(3,4-dimethoxyphenyl]-pyrido[3,2-d]pyrimidine], the CC50/EC50 in the data set on HCV replicon is given as 147. Also, in the data set on HCV replicon (setting [3]), the EC50 was 50 nM. This compound also displayed a CC50 at 3 days in data set [2] of 7300 nM.

Turning to `CCOc1nc(N)nc2ccc(-c3cccc(F)c3)nc12` [Example 280, 2-amino-4-ethoxy-6-(m-fluorophenyl)-pyrido[3,2-d]-pyrimidine], the CC50/EC50 with HCV replicon is recorded as 125. Besides, in the data set with HCV replicon (setting [3]), the EC50 was determined as 300 nM. The compound also displayed a CC50 at 3 days in data set [2] of 37500 nM.

For the compound `Nc1ccc(-c2ccc3nc(N)nc(N4CCOCC4)c3n2)cc1` [Example 502, 6-(4-amino-phenyl)-4-morpholin-4-yl-pyrido[3,2-d]pyrimidin-2-ylamine], the CC50/EC50 in the data set with HCV replicon is reported as 82. The EC50 in the data set with HCV replicon (Hepatitis C virus, Huh-7, 72 h) is 99 nM. The CC50 at 3 days in data set [2] is 8100 nM.

In the case of `COc1ccc(-c2ccc3nc(N)nc(NC4CCN(C(=O)OC(C)(C)C)CC4)c3n2)cc1OC` [Example 246, 2-amino-4-[(1-Boc-piperidin-4-yl)amino]-6-(3,4-dimethoxyphenyl)-pyrido[3,2-d]pyrimidine], the CC50/EC50 in the data set on HCV replicon is on record as 70. Moreover, the EC50 in the data set with HCV replicon (setting [3]) was 22 nM. Also, it took 1500 nM to reach half-maximal cytotoxicity in data set [2] (CC50 at 3 days).

Consider `COc1ccc(-c2ccc3nc(N)nc(N4CCCN(C(=O)Nc5cccc(C)c5)CC4)c3n2)cc1OC` [Example 241, 2-amino-4-[(N-3-methylphenylcarbamoyl)-homopiperazin-1-yl]-6-(3,4-dimethoxyphenyl)-pyrido[3,2-d]pyrimidine], for which the CC50/EC50 with HCV replicon was found to be 218. The EC50 with HCV replicon (setting [3]) is 11 nM. The CC50 at 3 days in data set [2] stood at 2400 nM.

With `CCOc1nc(N)nc2ccc(-c3ccc(F)cc3)nc12` [Example 281, 2-amino-4-ethoxy-6-(p-fluorophenyl)pyrido[3,2-d]-pyrimidine], in the data set on HCV replicon, the CC50/EC50 is 856. Moreover, the EC50 in the data set on HCV replicon (setting [3]) was found to be 59 nM. Further, in the data set with Huh-7 HCV replicon cells, the CC50 was found to be 50100 nM. In data set [1], the inhibition at 5 µM came out at 17%.

As for `COc1ccc(-c2ccc3nc(N)nc(NC4CCCN(C(=O)OC(C)(C)C)C4)c3n2)cc1OC` (stereo not drawn) [Example 247, 2-amino-4-[(1-Boc-piperidin-3-yl)amino]-6-(3,4-dimethoxyphenyl)-pyrido[3,2-d]pyrimidine], the CC50/EC50 in the data set with HCV replicon worked out at 238. Besides, in the data set with HCV replicon (setting [3]), the EC50 was 22 nM. This compound showed a CC50 at 3 days in data set [2] of 5200 nM.

For `CC(=O)Nc1ccc(-c2ccc3nc(N)nc(OCC4CC4)c3n2)cc1` [Example 356, 2-amino-4-(cyclopropylmethyloxy)-6-(p-acetamidophenyl)-pyrido(3,2-d)pyrimidine], the CC50/EC50 with HCV replicon was 87. For the same compound, in the data set with HCV replicon (setting [3]), the EC50 came out at 290 nM. Besides, in data set [2], the 50% cytotoxic concentration (CC50) at 3 days amounted to 25100 nM.

Consider `Nc1nc(OCC(F)(F)F)c2nc(-c3ccc(F)cc3)ccc2n1` [Example 351, 2-amino-4-(trifluoroethoxy)-6-(4-fluorophenyl)-pyrido[3,2-d]pyrimidine], for which the CC50/EC50 in the data set with HCV replicon was 132. In the data set with HCV replicon (setting [3]), the EC50 was 190 nM. Moreover, the CC50 at 3 days in data set [2] came to 25100 nM.

`CC(=O)Nc1nc(OC(C)C)c2nc(-c3ccc(F)cc3)ccc2n1` [Example 285, 2-acetamido-4-isopropoxy-6-(p-fluorophenyl)-pyrido[3,2-d]pyrimidine]: in the data set on HCV replicon, the CC50/EC50 is listed as 492. The EC50 in the data set with HCV replicon (setting [3]) stood at 51 nM. This compound also registered a CC50 at 3 days in data set [2] of 25100 nM.
